Results taken from US4178442A, “Novel cinnamoyles piperazines and homopiperazines, the method of preparing them and their application in therapeutics” (Delalande S. A., priority 1977, dated 1979).
Where two headings read alike, the source gives them in different places.

Tested on: anaesthetized dog
Test: Antiangorous activity on anaesthetized dog: consumption of oxygen in the left ventricule and cardiac effort (KATZ's index)
Assay type: in vivo
Conditions: for inhibition in vivo at […] / inhibition in vivo at 2.5 mg/kg / inhibition in vivo at 10 mg/kg / inhibition in vivo at 0.625 mg/kg / inhibition in vivo at 1.25 mg/kg: Canis lupus familiaris, iv; for inhibition in vivo at […]: 0.15 mg/kg i.v. slow perfusion
Procedure: The antiangorous activity was tested on an anaesthetized dog (sodium pentobarbital 30 mg/kg/i.v.).
The consumption of oxygen in the left ventricule was estimated by the product of the coronary venous flow and the coronary arteriovenous difference in oxygen (% volume).
The coronary venous flow was measured at the coronary venous sinus by means of a modified Morawitz cannula, introduced under radioscopic control.
The cardiac effort was estimated according to KATZ's index, by the product of the average arterial pressure and the cardiac frequency.
The cardiac frequency was estimated from the electrocardiogram recorded with D2 derivation.
It should be noted that the compounds tested were injected intravenously with slow perfusion.

[1] = read-out: Diminution in consumption of O2
[2] = read-out: Diminution in the cardiac effort (IK)
[3] = 2.5 mg/kg i.v. slow perfusion, read-out: Diminution in consumption of O2
[4] = 2.5 mg/kg i.v. slow perfusion, read-out: Diminution in the cardiac effort (IK)
[5] = 0.625 mg/kg i.v. slow perfusion
[6] = 0.625 mg/kg i.v. slow perfusion, read-out: Diminution in consumption of O2
[7] = 0.625 mg/kg i.v. slow perfusion, read-out: Diminution in the cardiac effort (IK)
[8] = 1.25 mg/kg i.v. slow perfusion, read-out: Diminution in consumption of O2
[9] = 1.25 mg/kg i.v. slow perfusion, read-out: Diminution in the cardiac effort (IK)

| Compound | Diminution in the cardiac effort (IK): in time (2.5 mg/kg i.v. slow perfusion) [min] | inhibition in vivo at 2.5 mg/kg [3] [%] | inhibition in vivo at 2.5 mg/kg [4] [%] | Diminution in consumption of O2: in time (2.5 mg/kg i.v. slow perfusion) [min] | other results |
| --- | --- | --- | --- | --- | --- |
| COc1cc(/C=C/C(=O)N2CCN(CC(O)COc3ccc(NC(C)=O)c4c3OCO4)CC2)cc(OC)c1OC (stereo not shown) [780 346] |  |  |  |  | inhibition in vivo at […] [1]: 43%; inhibition in vivo at […] [2]: 2% |
| COc1cc(/C=C/C(=O)N2CCN(CC(O)COc3ccc(Cl)cc3C)CC2)cc(OC)c1OC (stereo not shown) [770 966] | 30 | 7 | 46 |  |  |
| COc1cc(C#N)ccc1OCC(O)CN1CCN(C(=O)/C=C/c2cc(OC)c(OC)c(OC)c2)CC1 (stereo not shown) [771 281] | 30 | 23 | 44 | 30 |  |
| CCCCc1oc2ccccc2c1C(=O)c1cc(I)c(OCCN(CC)CC)c(I)c1 [AMIODARONE, reference compound] |  |  |  |  | Diminution in consumption of O2: in time (10 mg/kg i.v. slow perfusion): 15 min; Diminution in the cardiac effort (IK): in time (10 mg/kg i.v. slow perfusion): 15 min; inhibition in vivo at 10 mg/kg (10 mg/kg i.v. slow perfusion, read-out: Diminution in consumption of O2): 11%; inhibition in vivo at 10 mg/kg (10 mg/kg i.v. slow perfusion, read-out: Diminution in the cardiac effort (IK)): 22% |
| CCCCCOC(=O)c1ccc(OCC(O)CN2CCN(C(=O)/C=C/c3cc(OC)c(OC)c(OC)c3)CC2)c2c1OCCO2 (stereo not shown) [780 301] |  |  |  |  | inhibition in vivo at […] [1]: 40%; inhibition in vivo at […] [2]: 28% |
| COc1cc(/C=C/C(=O)N2CCN(CCCOc3ccc(NC(C)=O)c4c3OCCO4)CC2)cc(OC)c1OC [771 172] | 23 | 25 | 29 | 15 |  |
| COc1cc(C(C)=O)ccc1OCC(O)CN1CCCN(C(=O)/C=C/c2cc(OC)c(OC)c(OC)c2)CC1 (stereo not shown) [780 269] | 60 | 34 | 40 | 30 |  |
| COc1cc(/C=C/C(=O)N2CCN(CC(O)COc3ccc(C(=O)OC(C)C)c4c3OCCO4)CC2)cc(OC)c1OC (stereo not shown) [780 373] | 30 | 66 | 25 | 30 |  |
| COc1cc(/C=C/C(=O)N2CCN(CC(O)COc3ccc(C(=O)c4ccccc4)cc3)CC2)cc(OC)c1OC (stereo not shown) [771 318] | 15 | 63 | 31 | 60 |  |
| COc1cc(/C=C/C(=O)N2CCN(CC(O)COc3ccc(C(C)=O)cc3OC)CC2)cc(OC)c1 (stereo not shown) [780 404] | 30 | 69 | 44 | 15 |  |
| COc1ccc(NC(=O)Nc2ccc(OCC(O)CN3CCN(C(=O)/C=C/c4cc(OC)c(OC)c(OC)c4)CC3)c3c2OCCO3)cc1 (stereo not shown) [780 223] | 90 | 62 | 35 | 90 |  |
| CNC(=O)c1ccc(OCCCN2CCN(C(=O)/C=C/c3cc(OC)c(OC)c(OC)c3)CC2)c2c1OCCO2 [771 163] |  |  |  |  | Diminution in consumption of O2: in time [5]: 30 min; Diminution in the cardiac effort (IK): in time [5]: 40 min; inhibition in vivo at 0.625 mg/kg [6]: 61%; inhibition in vivo at 0.625 mg/kg [7]: 20% |
| CNC(=O)Nc1ccc(OCC(O)CN2CCCN(C(=O)/C=C/c3cc(OC)c(OC)c(OC)c3)CC2)c2c1OCCO2 (stereo not shown) [780 374] | 15 | 39 | 31 | 30 |  |
| CNC(=O)Nc1ccc(OCC(O)CN2CCN(C(=O)/C=C/c3cc(OC)c(OC)c(OC)c3)CC2)c2c1OCCCO2 (stereo not shown) [780 456] |  |  |  |  | Diminution in consumption of O2: in time [5]: 15 min; Diminution in the cardiac effort (IK): in time [5]: 30 min; inhibition in vivo at 0.625 mg/kg [6]: 13%; inhibition in vivo at 0.625 mg/kg [7]: 32% |
| CNC(=O)Nc1cc(Cl)c(OCC(O)CN2CCN(C(=O)/C=C/c3cc(OC)c(OC)c(OC)c3)CC2)c(Cl)c1 (stereo not shown) [780 292] | 45 | 59 | 34 | 90 |  |
| COc1cc(/C=C/C(=O)N2CCN(CC(O)COc3ccc(NC(C)=O)c4c3CCC4)CC2)cc(OC)c1OC (stereo not shown) [771 306] |  |  |  |  | Diminution in consumption of O2: in time (1.25 mg/kg i.v. slow perfusion): 15 min; Diminution in the cardiac effort (IK): in time (1.25 mg/kg i.v. slow perfusion): 30 min; inhibition in vivo at 1.25 mg/kg [8]: 58%; inhibition in vivo at 1.25 mg/kg [9]: 38% |
| CNC(=O)Nc1ccc(OCC(O)CN2CCN(C(=O)/C=C/c3cc(OC)c(OC)c(OC)c3)CC2)c2c1CCC2 (stereo not shown) [771 153] | 40 | 31 | 63 | 23 |  |
| COc1cc(/C=C/C(=O)N2CCN(CC(O)COc3ccc(C(=O)OC4CCCCC4)c4c3OCCO4)CC2)cc(OC)c1OC (stereo not shown) [780 333] |  |  |  |  | inhibition in vivo at […] [1]: 51%; inhibition in vivo at […] [2]: 21% |
| CCCc1ccc(OCC(O)CN2CCN(C(=O)/C=C/c3cc(OC)c(OC)c(OC)c3)CC2)cc1 (stereo not shown) [780 267] |  | 27 | 8 | 30 |  |
| COc1cc(/C=C/C(=O)N2CCN(CC(O)COc3ccc(C(C)=O)c4c3CCC4)CC2)cc(OC)c1OC (stereo not shown) [760 852] | 45 | 44 | 23 | 30 |  |
| COc1cc(/C=C/C(=O)N2CCN(CC(O)COc3c(OC)cc(C(C)=O)cc3OC)CC2)cc(OC)c1OC (stereo not shown) [780 359] |  |  |  |  | Diminution in consumption of O2: in time [5]: 45 min; Diminution in the cardiac effort (IK): in time [5]: 30 min; inhibition in vivo at 0.625 mg/kg [6]: 60%; inhibition in vivo at 0.625 mg/kg [7]: 32% |
| COc1cc(C=O)ccc1OCC(O)CN1CCN(C(=O)/C=C/c2cc(OC)c(OC)c(OC)c2)CC1 (stereo not shown) [780 329] | 30 | 21 | 13 | 30 |  |
| COc1cc(/C=C/C(=O)N2CCN(CC(O)COc3ccc(NC(=O)N4CCOCC4)c4c3OCCO4)CC2)cc(OC)c1OC (stereo not shown) [771 149] |  |  |  |  | inhibition in vivo at […] [1]: 12%; inhibition in vivo at […] [2]: 14% |
| CNC(=O)Nc1cc(OC)c(OCC(O)CN2CCN(C(=O)/C=C/c3cc(OC)c(OC)c(OC)c3)CC2)c(OC)c1 (stereo not shown) [780 357] | 15 | 43 | 21 | 15 |  |
| COc1cc(/C=C/C(=O)N2CCCN(CC(O)COc3ccc(NC(C)=O)c4c3OCCO4)CC2)cc(OC)c1OC (stereo not shown) [780 272] | 90 | 40 | 51 | 90 |  |
| COc1cc(/C=C/C(=O)N2CCN(CC(O)COc3ccc(C(C)=O)c4c3CCCC4)CC2)cc(OC)c1OC (stereo not shown) [780 128] | 23 | 57 | 17 | 23 |  |
| COc1cc(/C=C/C(=O)N2CCN(CC(O)COc3c(Cl)cc(C(C)=O)cc3Cl)CC2)cc(OC)c1OC (stereo not shown) [780 339] | 40 | 74 | 42 | 45 |  |
| COc1cc(/C=C/C(=O)N2CCN(CC(O)COc3ccc(OC)c4c3OCCO4)CC2)cc(OC)c1OC (stereo not shown) [780 009] |  |  |  |  | Diminution in consumption of O2: in time (1.25 mg/kg i.v. slow perfusion): 35 min; Diminution in the cardiac effort (IK): in time (1.25 mg/kg i.v. slow perfusion): 30 min; inhibition in vivo at 1.25 mg/kg [8]: 48%; inhibition in vivo at 1.25 mg/kg [9]: 20% |
| COc1cc(/C=C/C(=O)N2CCN(CC(O)CSc3cccc4c3OCCO4)CC2)cc(OC)c1OC (stereo not shown) [780 389] | 30 | 32 | 15 | 15 |  |
